For orientation: Ki means the equilibrium dissociation constant of an inhibitor or competing ligand from its target.

The values below come from patent US8916570B2 (The United States of America, as represented by the …, priority 2008, dated 2014).

Structures are written as SMILES. Where a chain is given by its changes, count along the chain named. Where two headings read alike, the source gives them in different places. Marks after values point to notes of the source that are not given here. A value given as a limit tells only on which side of the number the result lay.

Assay [1] concerns the target T1, hA2AAR (Homo sapiens, UniProt P29274).
T1 construct: expressed in transfected cells
Kind of assay: Binding at hA2AAR, HEK-293 membranes (Example 7). The following applies: read-out: % inhibition hA2A. As for the experimental part:
After harvesting, cells were homogenized and suspended in PBS.
Nonspecific binding was determined using a final concentration of 10 μM 51 diluted with the buffer.

For assay [2], the target named is T2, mA3AR (Mus musculus, UniProt Q61618).
T2 construct: expressed in transfected cells
T2 sequence (Q61618 1-319): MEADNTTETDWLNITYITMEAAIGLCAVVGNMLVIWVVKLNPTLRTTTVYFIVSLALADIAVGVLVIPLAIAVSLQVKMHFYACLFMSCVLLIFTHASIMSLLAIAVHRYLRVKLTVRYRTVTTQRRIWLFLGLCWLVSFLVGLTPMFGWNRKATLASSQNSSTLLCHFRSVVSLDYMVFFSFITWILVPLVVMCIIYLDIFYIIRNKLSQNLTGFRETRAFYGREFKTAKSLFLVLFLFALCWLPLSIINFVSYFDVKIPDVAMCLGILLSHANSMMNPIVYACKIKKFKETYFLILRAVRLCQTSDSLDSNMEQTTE
Description: Competition binding at mA3AR, HEK293 membranes (Example 8). As to conditions: read-out: Affinity (Ki, nM) mA3.

The target of assay [3] is T3, hA3AR (Homo sapiens, UniProt P0DMS8).
T3 construct: expressed in transfected cells; host or cells: CHO
T3 sequence (P0DMS8 1-318): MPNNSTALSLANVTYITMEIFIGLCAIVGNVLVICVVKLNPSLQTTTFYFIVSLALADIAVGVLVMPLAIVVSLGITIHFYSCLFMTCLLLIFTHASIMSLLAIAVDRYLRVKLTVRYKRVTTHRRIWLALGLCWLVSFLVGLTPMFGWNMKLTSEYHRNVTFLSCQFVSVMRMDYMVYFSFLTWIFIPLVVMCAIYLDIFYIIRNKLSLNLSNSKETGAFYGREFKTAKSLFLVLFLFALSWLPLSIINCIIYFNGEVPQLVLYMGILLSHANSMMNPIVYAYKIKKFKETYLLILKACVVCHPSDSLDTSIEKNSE
Kind of assay: Binding at hA3AR, CHO membranes (Example 7). The following applies: read-out: Affinity (Ki, nM) hA3.
Description: (§1) CHO cells stably expressing the recombinant hA1, hA3, and rA3Rs, and HEK-293 cells stably expressing the hA2AAR were cultured in Dulbecco's modified Eagle medium (DMEM) and F12 (1:1) supplemented with 10% fetal bovine serum, 100 units/mL penicillin, 100 μg/mL streptomycin, and 2 μmol/mL glutamine. In addition, 800 μg/mL geneticin was added to the A2A media, while 500 μg/mL hygromycin was added to the A1 and A3 media. After harvesting, cells were homogenized and suspended in PBS. Cells were then centrifuged at 240 g for 5 min, and the pellet was resuspended in 50 mM Tris-HCl buffer (pH 7.5) containing 10 mM MgCl2. The suspension was homogenized and was then ultra-centrifuged at 14,330 g for 30 min at 4° C. […] The protein concentration was measured using the BCA Protein Assay Kit from Pierce Biotechnology, Inc. (Rockford, Ill.).
(§2) Into each tube in the binding assay was added 50 μL of increasing concentrations of the test ligand in Tris-HCl buffer (50 mM, pH 7.5) containing 10 mM MgCl2, 50 μL of the appropriate agonist radioligand, and finally 100 μL of membrane suspension. […] For the A2AAR (20 μg/tube) the radioligand used was [^3H]53 (10 nM). […] Nonspecific binding was determined using a final concentration of 10 μM 51 diluted with the buffer. The mixtures were incubated at 25° C. for 60 min in a shaking water bath. Binding reactions were terminated by filtration through Brandel GF/B filters under a reduced pressure using a M-24 cell harvester (Brandel, Gaithersburg, Md.). Filters were washed three times with 3 mL of 50 mM ice-cold Tris-HCl buffer (pH 7.5). […] Filters for A3AR binding were counted using a Packard COBRA™ II γ-counter. The Ki values were determined using GraphPad Prism for all assays.

For assay [4], the target named is T4, mA1AR (Mus musculus, UniProt Q60612).
T4 construct: expressed in transfected cells
T4 sequence (Q60612 1-326): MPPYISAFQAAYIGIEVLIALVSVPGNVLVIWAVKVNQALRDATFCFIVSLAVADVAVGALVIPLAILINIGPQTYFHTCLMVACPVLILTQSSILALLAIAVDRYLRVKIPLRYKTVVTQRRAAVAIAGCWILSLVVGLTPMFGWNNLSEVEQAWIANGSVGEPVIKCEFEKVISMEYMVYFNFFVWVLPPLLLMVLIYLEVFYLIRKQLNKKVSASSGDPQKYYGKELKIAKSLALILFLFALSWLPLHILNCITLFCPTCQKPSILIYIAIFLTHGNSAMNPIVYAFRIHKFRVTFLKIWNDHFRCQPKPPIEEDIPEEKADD
Description: Competition binding at mA1AR, HEK293 membranes (Example 8). The following applies: percent in parentheses, concentration not given.

In assay [5] the target is T5, hA1AR (Homo sapiens, UniProt P30542).
T5 construct: expressed in transfected cells; host or cells: CHO
T5 sequence (P30542 1-326): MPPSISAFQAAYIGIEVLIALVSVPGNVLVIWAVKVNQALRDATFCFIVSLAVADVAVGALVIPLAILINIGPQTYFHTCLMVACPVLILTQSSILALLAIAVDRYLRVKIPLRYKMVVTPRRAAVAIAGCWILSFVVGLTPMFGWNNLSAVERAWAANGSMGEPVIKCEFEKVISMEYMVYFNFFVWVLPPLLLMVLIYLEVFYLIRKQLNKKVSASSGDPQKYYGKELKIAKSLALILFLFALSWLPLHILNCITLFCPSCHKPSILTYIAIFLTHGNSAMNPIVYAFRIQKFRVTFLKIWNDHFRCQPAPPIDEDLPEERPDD
Description: Binding at hA1AR, CHO membranes (Example 7). The following applies: read-out: % inhibition hA1.
Description: as §1, §2

Assay [6] has as its target T6, human A3 receptor (Homo sapiens, UniProt P0DMS8).
T6 sequence (P0DMS8 1-318): T3 sequence (P0DMS8 1-318)
Description: Binding assay at the human A3 receptor, CHO membranes (Example 4).
Description: Cell culture and membrane preparation: CHO (Chinese hamster ovary) cells expressing the recombinant human A3AR were cultured in DMEM (Dulbecco's modified Eagle's medium) supplemented with 10% fetal bovine serum, 100 units/mL penicillin, 100 μg/mL streptomycin, 2 μmol/mL glutamine and 800 μg/mL geneticin. The CHO cells expressing rat A3ARs were cultured in DMEM and F12 (1:1). Cells were harvested by trypsinization. After homogenization and suspension, cell membranes were centrifuged at 500 g for 10 min, and the pellet was re-suspended in 50 mM Tris.HCl buffer (pH 8.0) containing 10 mM MgCl2, 1 mM EDTA and 0.1 mg/mL CHAPS (3[(3-cholamidopropyl)dimethylammonio]-propanesulfonic acid). […] The protein concentration was measured using the Bradford assay.
The mixtures were incubated at 37° C. for 60 min. Binding reactions were terminated by filtration through Whatman GF/B filters under reduced pressure using a MT-24 cell harvester (Brandell, Gaithersburgh, Md., USA). Filters were washed three times with 9 mL ice-cold buffer. Radioactivity was determined in a Beckman 5500B γ-counter.

Assay [7] deals with T7, mA2AAR (Mus musculus, UniProt Q60613).
T7 construct: expressed in transfected cells
T7 sequence (Q60613 whole entry): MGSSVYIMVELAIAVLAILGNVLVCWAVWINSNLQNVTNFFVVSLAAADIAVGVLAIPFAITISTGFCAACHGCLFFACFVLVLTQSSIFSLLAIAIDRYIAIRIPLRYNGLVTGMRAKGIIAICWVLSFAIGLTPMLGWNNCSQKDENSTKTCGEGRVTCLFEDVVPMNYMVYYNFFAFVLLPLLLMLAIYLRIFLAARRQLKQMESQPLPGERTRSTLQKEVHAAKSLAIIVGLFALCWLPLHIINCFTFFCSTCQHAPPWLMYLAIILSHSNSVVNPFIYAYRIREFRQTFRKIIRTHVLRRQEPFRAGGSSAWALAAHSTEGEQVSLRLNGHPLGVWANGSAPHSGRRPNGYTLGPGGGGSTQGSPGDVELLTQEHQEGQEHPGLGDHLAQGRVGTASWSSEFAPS
As to conditions: values from Melman et al., cited from earlier work.

The target of assay [8] is T8, mouse A3 adenosine receptor (Mus musculus, UniProt Q61618).
T8 sequence (Q61618 1-319): T2 sequence (Q61618 1-319)
Description: Competition radioligand binding, mouse A3 AR, HEK293 membranes (Table 1). As to conditions: read-out: A3 Ki; species M (mouse); [125I]I-AB-MECA.

Assay [9] concerns the target T9, human A1 adenosine receptor (Homo sapiens, UniProt P30542).
T9 sequence (P30542 1-326): T5 sequence (P30542 1-326)
More on the design: expressed in transfected cells; host or cells: CHO. As to conditions: species H (human); data from Tchilibon et al. or Kim et al.; cited from earlier work.

Assay [10] has as its target T2, mA3AR. As to conditions: values from Melman et al.; read-out: Affinity (Ki, nM) mA3; cited from earlier work.
For assay [11], the target named is mouse A2A adenosine receptor (Mus musculus, UniProt Q60613). Kind of assay: Competition radioligand binding, mouse A2A AR, HEK293 membranes (Table 1).
Sequence of mouse A2A adenosine receptor (Q60613 whole entry): as above
For assay [12], the target named is T10, human A2A adenosine receptor (Homo sapiens, UniProt P29274). Details: expressed in transfected cells. As to conditions: species H (human), cited from earlier work; for A2A % inhib.: percent inhibition at 10 μM, data from Tchilibon et al.
T10 sequence (P29274 whole entry): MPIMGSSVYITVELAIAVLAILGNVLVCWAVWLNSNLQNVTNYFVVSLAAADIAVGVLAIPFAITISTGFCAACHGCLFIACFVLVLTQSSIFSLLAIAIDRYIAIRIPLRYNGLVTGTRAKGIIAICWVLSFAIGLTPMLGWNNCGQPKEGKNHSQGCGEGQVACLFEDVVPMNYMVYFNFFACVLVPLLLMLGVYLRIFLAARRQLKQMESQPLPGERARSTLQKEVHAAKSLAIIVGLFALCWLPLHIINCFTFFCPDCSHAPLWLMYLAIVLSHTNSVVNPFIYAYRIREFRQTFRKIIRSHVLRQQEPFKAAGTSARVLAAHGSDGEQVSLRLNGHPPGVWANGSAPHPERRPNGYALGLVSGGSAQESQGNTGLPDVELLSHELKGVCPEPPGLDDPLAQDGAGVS
The target of assay [13] is T4, mA1AR. The following applies: values from Melman et al.; read-out: Affinity (Ki, nM) mA1; cited from earlier work.
The target of assay [14] is T5, hA1AR. As to conditions: values from the literature (footnotes c, d); read-out: Affinity (Ki, nM) hA1; cited from earlier work.
The target of assay [15] is T11, rat A3 AR (Rattus norvegicus, UniProt P28647).
T11 sequence (P28647 1-320): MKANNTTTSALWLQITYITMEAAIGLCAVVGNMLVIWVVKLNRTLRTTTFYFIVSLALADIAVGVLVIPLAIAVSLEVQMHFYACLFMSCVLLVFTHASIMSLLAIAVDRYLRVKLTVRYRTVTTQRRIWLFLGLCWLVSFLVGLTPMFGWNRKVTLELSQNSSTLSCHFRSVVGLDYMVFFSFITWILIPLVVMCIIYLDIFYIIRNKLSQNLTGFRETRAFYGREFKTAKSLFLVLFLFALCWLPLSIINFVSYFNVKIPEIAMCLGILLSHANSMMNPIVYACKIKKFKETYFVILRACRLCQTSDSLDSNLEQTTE
As to conditions: species R (rat); data from Tchilibon et al. / Lee et al.; cited from earlier work.

Assay [16] concerns the target T12, mouse A1 adenosine receptor (Mus musculus, UniProt Q60612).
T12 sequence (Q60612 1-326): T4 sequence (Q60612 1-326)
Description: Competition radioligand binding, mouse A1 AR, HEK293 membranes (Table 1). As to conditions: read-out: A1 Ki; species M (mouse); [125I]I-AB-MECA; mean ± SEM.

Assay [17] addresses T1, hA2AAR. The following applies: cited from earlier work; for % inhibition hA2A: inhibition of radioligand binding at 10 μM, values from the literature.
Assay [18] concerns the target rat A2A AR (Rattus norvegicus, UniProt P30543). The following applies: species R (rat); data from Lee et al.; cited from earlier work.
Assay [19] has as its target T13, rat A1 AR (Rattus norvegicus, UniProt P25099).
T13 sequence (P25099 1-326): T4 sequence (Q60612 1-326) with E151V, A155D, I157R, E316D, I319L, D325E
As to conditions: species R (rat); data from Lee et al.; cited from earlier work.

In assay [20] the target is T9, human A1 adenosine receptor. Description: Radioligand binding, human A1 AR, CHO membranes (Table 1). As to conditions: read-out: A1 Ki; species H (human).
Assay [21] concerns the target T10, human A2A adenosine receptor. Description: Radioligand binding, human A2A AR (Table 1). The following applies: species H (human); percent inhibition at 10 μM.

T1 sequence (P29274 whole entry): as the sequence (P29274 whole entry) above
Sequence of rat A2A AR (P30543 whole entry): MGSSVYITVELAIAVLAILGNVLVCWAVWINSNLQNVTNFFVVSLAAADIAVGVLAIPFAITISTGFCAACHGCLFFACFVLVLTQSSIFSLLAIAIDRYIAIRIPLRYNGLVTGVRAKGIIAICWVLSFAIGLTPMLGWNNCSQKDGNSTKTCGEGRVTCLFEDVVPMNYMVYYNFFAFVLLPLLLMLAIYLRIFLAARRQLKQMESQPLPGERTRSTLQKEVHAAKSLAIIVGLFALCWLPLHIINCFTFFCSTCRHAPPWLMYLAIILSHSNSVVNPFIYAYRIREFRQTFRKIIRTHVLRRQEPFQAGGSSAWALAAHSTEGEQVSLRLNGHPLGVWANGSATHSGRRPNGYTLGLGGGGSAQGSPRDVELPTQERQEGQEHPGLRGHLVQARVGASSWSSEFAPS

Consider `CNC(=O)[C@@]12C[C@@H]1[C@@H](n1cnc3c(NCc4cccc(Cl)c4)nc(C#Cc4ccc(N)cc4)nc31)[C@H](O)[C@@H]2O` [Compound 332a, (1S,2R,3S,4R,5S)-4-(2-((4-Aminophenyl)ethynyl)-6-(3-chlorobenzylamino)-9H-purin-9-yl)-2,3-dihydroxy-N-methylbicyclo[3.1.0]hexane-1-carboxamide], for which the inhibition at 10 µM in assay [1] was 44%; in assay [5], 2%. Besides, the Ki worked out at 17 nM in [2] and 2.27 ± 0.7 nM in [3]. Moreover, the “% inhibition mA1” value in assay [4] is “(93%)”.

Turning to `O[C@@H]1[C@H](O)[C@@H]2C[C@@H]2[C@H]1n1cnc2c(Nc3cccc4ccccc34)nc(Cl)nc21` [Compound 110b, (1′R,2′R,3′S, 4′R,5′S)-4′-[2-Chloro-6-(1-naphthylamino)purine]-2′,3′-O-dihydroxybicyclo[3.1.0]hexane], in [6], the “binding to the A3AR (in words)” value is “nanomolar binding affinity”.

For the molecule `CNC(=O)[C@@]12C[C@@H]1[C@@H](n1cnc3c(NC)nc(C#Cc4ccccc4Cl)nc31)[C@H](O)[C@@H]2O` [Compound 314, (1S,2R,3S,4R,5S)-4-(2-((2-Chlorophenyl)ethynyl)-6-(methylamino)-9H-purin-9-yl)-2,3-dihydroxy-N-methylbicyclo[3.1.0]hexane-1-carboxamide], the inhibition at 10 µM in assay [1] stood at 30%; in assay [5] it was 22%. In addition, the inhibition constant Ki amounted to 55 nM in assay [2] and 0.58 ± 0.04 nM in assay [3]. In addition, the “% inhibition mA1” value in [4] is given as “(45%)”.

On to `CNC(=O)[C@@]12C[C@@H]1[C@@H](n1cnc3c(NCc4cccc(Cl)c4)nc(Cl)nc31)[C@H](O)[C@@H]2O` [Compound 13], for which the Ki is 10400 nM in assay [7] (read-out: Affinity (Ki, nM) mA2A); 1.49 ± 0.46 nM in assay [8]; 260 ± 60 nM in assay [9]; 1.49 ± 0.46 nM in assay [10]; 10400 ± 1700 nM in assay [11] (read-out: A2A Ki, species M (mouse), [3H]CGS21680); 2300 ± 100 nM in assay [12] (data from Tchilibon et al. or Kim et al.). Moreover, the Ki in assay [13] is 15.3 ± 5.8 nM; in assay [14], 260 ± 60 nM; in [15], 1 nM; in assay [16] it was 15.3 ± 5.8 nM; in assay [17] (values from the literature (footnotes c, d), read-out: Affinity (Ki, nM) hA2A), 2300 ± 100 nM.

In the case of `CNC(=O)C12CC1C(n1cnc3c(NCc4cccc(C#CCO)c4)nc(Cl)nc31)C(O)C2O` (centres unmarked) [Compound 16], the inhibition at 100 µM in assay [11] (read-out: A2A % inhib.) was found to be 11%. Moreover, the A2A % inhib. result in [12] was “(56%)^f”.

With `CNC(=O)[C@@]12C[C@@H]1[C@@H](n1cnc3c(NC)nc(C#Cc4ccc(F)cc4)nc31)[C@H](O)[C@@H]2O` [Compound 313, (1S,2R,3S,4R,5S)-4-(2-((4-Fluorophenyl)ethynyl)-6-(methylamino)-9H-purin-9-yl)-2,3-dihydroxy-N-methylbicyclo[3.1.0]hexane-1-carboxamide], the figures for the inhibition at 10 µM in [1] and in assay [5] were 19% and 27%, respectively. Further, the results for the inhibition constant Ki in assay [2] and in [3] were 66 nM and 0.53 ± 0.09 nM, respectively. Moreover, the “% inhibition mA1” value in assay [4] is “(25%)”.

For `CNC(=O)[C@@]12C[C@@H]1[C@@H](n1cnc3c(NC)nc(Cl)nc31)[C@H](O)[C@@H]2O` [Compound 12], the Ki was 49 ± 3.9 nM in assay [8]; more than 10000 nM in [18]; 49 ± 3.9 nM in [10]; 55.3 ± 6 nM in assay [13]; 2100 ± 1700 nM in assay [14]; 805 nM in assay [19]. The Ki in assay [15] is 160 ± 30 nM; in assay [20] it was 2010 ± 1700 nM; in assay [16], 55.3 ± 6 nM. In [12], the A2A % inhib. entry was “(6%)^d,f”. For the same molecule, in assay [17], the “% inhibition hA2A” value is reported as “(6%)”.

Regarding `CCCC#Cc1nc(NCc2cccc(Cl)c2)c2ncn([C@@H]3[C@H](O)[C@H](O)[C@]4(C(=O)NC)C[C@H]34)c2n1` [Compound 5, (1′S,2′R,3′S,4′S,5′S)-4′-[6-(3-Chlorobenzylamino)-2-(1-pentynyl)-9-yl]-2′,3′-dihydroxybicyclo[3.1.0]hexane-1′-carboxylic acid N-methylamide], the “% inhibition mA2A” value in assay [7] (concentration not defined (mark ^1)) was “(42%)^1”. In addition, the A2A % inhib. entry in assay [11] (species M (mouse), percent inhibition at 100 μM) was “(42%)^i”; in assay [21], “(80%)^f”. In assay [17], the “% inhibition hA2A” value is given as “(80%)”.
